{
  "source": "patent US10472353B2",
  "about": "“Salt and crystal forms of PLK-4 inhibitor” (University Health Network, priority 2013, dated 2019)",
  "key": {"[1]": {"test": "Solubility in deionized water", "format": "physicochemical"}, "[2]": {"test": "Pharmacokinetics after single oral dose, powder in capsule, plasma levels of compound (I) by LC/MS", "format": "in vivo, female Sprague-Dawley rats", "conditions": "Sprague-Dawley rats", "procedure": "A single oral dose in solution and as powder in capsule of the HCl salt of (I), fumarate form D and maleate form A were administered to female Sprague-Dawley rats at 5 mg/kg. Blood samples were collected in the presence of lithium heparin, and were centrifuged to generate plasma. The plasma was then analyzed for compound (I) plasma levels by LC/MS.\nAll animals involved in the dosing schedule were weighed and assigned numbers. All capsules (Size 9 porcine hard gelatin capsules, Torpac) corresponding with each animal to be dosed were carefully numbered with a fine tip Sharpie. A small plastic weighing dish was placed on the scale, with one capsule lid placed on the dish and the base of the capsule loader with the other part of the capsule was loaded in the reservoir. The balance was tared. A funnel was placed on top of the capsule loading apparatus and the total mass was carefully noted. A piece of 4″×4″ wax paper was folded in half creating a crease down the median. A small amount of finely ground compound (Ground the compound if required using mortar and pestle) was deposited in the crease of the wax paper and refolded. The folded wax paper was gently angled over the capsule loader funnel apparatus. A fine scapula was used to tease an amount of compound powder out of the crease onto the funnel allowing it to trickle into the loading bay and ultimately the capsule. The difference in mass from the total mass was noted. The capsule loading funnel was removed and the balance door closed to ascertain the absolute weight of compound inside the capsule. The funnel was returned to the capsule loading apparatus and loading continued until the desired amount of drug was inside the capsule. Note: When adding minute quantities to the capsule, simply brushed fine powered drug that settled on the funnel into the loading column. The funnel was removed and the weight was recorded. Calculated the amount of actual drug by multiplying weighed material by the bioequivalence ratio. The amount of actual drug was recorded. The capsule lid on the weighing dish was used to close the capsule tightly until it clicked into place.\nAll animals (n=3/group) were dosed orally in a volume of 5 mL/kg. Following dosing, each rat was bled at each of the designated time points. For control animals, blood was collected by the same procedure. Blood was collected from the lateral saphenous vein. Blood aliquots (˜50 μL) were collected in tubes coated with lithium heparin, mixed gently, then kept on ice and centrifuged at 2,500×g for 15 minutes at RT, within 1 hour of collection. The plasma layer was collected, kept on ice and finally maintained frozen at −80° C. until further processing.\nBioanalytical quantitation using HPLC/tandem quadruple mass spectrometry (HPLC-MS) was performed. Plasma concentrations and […] were calculated and reported.\nA 5 mg/mL standard solution in DMSO was diluted 100 fold and subsequently serial diluted in 50% DMSO. Aliquots (2 μL) of the serial dilutions were mixed with 18 μL of control plasma (20 μL total) for use as a standard curve. Plasma samples (20 μL) and standard samples were then diluted 5× with ice cold acetonitrile containing 100 ng/mL verapamil as internal standard (80% (v/v) acetonitrile). Acetonitrile precipitated samples and standards were filtered through 0.22 μm membranes in a 96-well format. Filtrates were then diluted with water to 30% acetonitrile.\nLC: 10 μL of each sample and standard were injected onto a Waters Acquity CSH 1.7 μm 2.1×100 mm column at 0.6 mL/min by an Acquity UPLC. The C18 column was equilibrated at 10% acetonitrile. Compounds were eluted with a gradient to 99% acetonitrile. All mobile phases contained 0.1% (v/v) formic acid.\nMS: Column eluent was analyzed by electrospray ionization into a tandem quadrupole mass spec system (Waters Xevo TQ). Eluent composition was analyzed for three ion-pairs specific for the internal standard and three ion-pairs specific for the analyte. […]"}, "[3]": {"test": "Gravimetric moisture sorption (dynamic vapour sorption, 25° C.)", "format": "physicochemical", "conditions": "for Gravimetric Moisture Sorption: 25° C.", "procedure": "Gravimetric moisture sorption experiments were carried out on a Hiden dynamic vapour sorption analyzer by first holding the sample at 40% RH and 25° C. until an equilibrium weight was reached or for a maximum of four hours. The sample was then subjected to an isothermal (25° C.) adsorption scan from 40 to 90% RH in steps of 10%. The sample was allowed to equilibrate to an asymptotic weight at each point for a maximum of four hours. Following adsorption, a desorption scan from […] RH (at 25° C.) was run in steps of −10% again allowing a maximum of four hours for equilibration to an asymptotic weight. An adsorption scan was then performed from 0% RH to 40% RH in steps of +10% RH."}, "[4]": {"test": "Differential scanning calorimetry, phase transition of the polymorphs", "format": "physicochemical", "procedure": "DSC analyses were carried out on a Mettler 822e differential scanning calorimeter or a TA instruments Q2000. Samples were weighed in an aluminum pan, covered with a pierced lid, and then crimped. Analysis conditions were 30-120, 30-200, 30-300° C. and 40-300° C. ramped at 10° C./min.\nForm D can be directly prepared as follows: A 250-mL three neck RBF equipped with a stir bar was charged with compound (I) (6.01 g, 11 mmol) and fumaric acid (1.41 g, 12 mmol). Acetone (50 mL) was added and the slurry was heated to 50° C. until the solution became clear. Precipitation was observed after 10 min, and stirring was continued for an additional 30 min. MTBE (25 mL) was added and the solution was cooled to rt and stirred overnight. The solids were filtered and dried under vacuum at 60° C. for 2 d to give the title compound (I) as a white solid (6.65 g, 91%)."}},
  "note": "Where a name gives a salt, the structure may show the parent alone. Read-outs that look alike come from different tables or passages of the source.",
  "data": [
    {"compound": "COc1ccc2c(c1)[C@]1(C[C@H]1c1ccc3c(/C=C/c4ccc(CN5C[C@@H](C)O[C@@H](C)C5)cc4)n[nH]c3c1)C(=O)N2", "note": "[HCl]", "values": [
      {"measurement": "Solubility in DI water", "setting": "[1]", "value": "≥100", "unit": "mg/mL"},
      {"measurement": "AUC(0-t)", "setting": "[2]; female, Sprague-Dawley, rat, plasma, po, 5 mg/kg, read-out: AUC0-tlast", "value": 2400, "unit": "ng·h/mL"},
      {"measurement": "Cmax", "setting": "[2]; female, Sprague-Dawley, rat, plasma, po, 5 mg/kg, read-out: Cmax", "value": 250, "unit": "ng/mL"}
    ]},
    {"compound": "COc1ccc2c(c1)[C@]1(C[C@H]1c1ccc3c(/C=C/c4ccc(CN5C[C@@H](C)O[C@@H](C)C5)cc4)n[nH]c3c1)C(=O)N2", "note": "[1:1 compound (I) maleate]", "values": [
      {"measurement": "Hygroscopicity (in words)", "setting": "[3]", "value": "non-hygroscopic"}
    ]},
    {"compound": "COc1ccc2c(c1)[C@]1(C[C@H]1c1ccc3c(/C=C/c4ccc(CN5C[C@@H](C)O[C@@H](C)C5)cc4)n[nH]c3c1)C(=O)N2", "note": "[Phosphate]", "values": [
      {"measurement": "Solubility in DI water", "setting": "[1]", "value": "≥100", "unit": "mg/mL"},
      {"measurement": "Gravimetric Moisture Sorption", "setting": "[3]; 60% RH", "value": 6.1, "unit": "wt % 60% RH"},
      {"measurement": "Gravimetric Moisture Sorption", "setting": "[3]; 90% RH", "value": 10.9, "unit": "wt % 90% RH"}
    ]},
    {"compound": "COc1ccc2c(c1)[C@]1(C[C@H]1c1ccc3c(/C=C/c4ccc(CN5C[C@@H](C)O[C@@H](C)C5)cc4)n[nH]c3c1)C(=O)N2", "note": "[Fumarate B]", "values": [
      {"measurement": "Gravimetric Moisture Sorption", "setting": "[3]; 60% RH", "value": 3.7, "unit": "wt % 60% RH"},
      {"measurement": "Hydrate formed on moisture sorption", "setting": "[3]; 90% RH", "value": "tetrahydrate"},
      {"measurement": "Gravimetric Moisture Sorption", "setting": "[3]; 90% RH", "value": 10.5, "unit": "wt % 90% RH"},
      {"measurement": "Hygroscopicity (in words)", "setting": "[3]; listed as Form B", "value": "hygroscopic"}
    ]},
    {"compound": "COc1ccc2c(c1)[C@]1(C[C@H]1c1ccc3c(/C=C/c4ccc(CN5C[C@@H](C)O[C@@H](C)C5)cc4)n[nH]c3c1)C(=O)N2", "note": "[Fumarate (form D)]", "values": [
      {"measurement": "Solubility in DI water", "setting": "[1]; listed as Fumarate D", "value": 0.17, "unit": "mg/mL"},
      {"measurement": "Stability among the four fumarate polymorphs (phase transition by DSC)", "setting": "[4]", "value": "highest stability"},
      {"measurement": "Gravimetric Moisture Sorption", "setting": "[3]; 60% RH, listed as Fumarate D", "value": 2.1, "unit": "wt % 60% RH"},
      {"measurement": "Gravimetric Moisture Sorption", "setting": "[3]; 90% RH, listed as Fumarate D", "value": 4.0, "unit": "wt % 90% RH"},
      {"measurement": "AUC0-tlast", "setting": "[2]; 5.0 mg/kg", "value": 2780, "unit": "ng·h/mL"},
      {"measurement": "Cmax", "setting": "[2]; 5.0 mg/kg", "value": 270, "unit": "ng/mL"}
    ]},
    {"compound": "COc1ccc2c(c1)[C@]1(C[C@H]1c1ccc3c(/C=C/c4ccc(CN5C[C@@H](C)O[C@@H](C)C5)cc4)n[nH]c3c1)C(=O)N2", "note": "[1:1 Compound (I) fumarate]", "values": [
      {"measurement": "Hygroscopicity (in words)", "setting": "[3]", "value": "non-hygroscopic"}
    ]},
    {"compound": "COc1ccc2c(c1)[C@]1(C[C@H]1c1ccc3c(/C=C/c4ccc(CN5C[C@@H](C)O[C@@H](C)C5)cc4)n[nH]c3c1)C(=O)N2", "note": "[Fumarate C]", "values": [
      {"measurement": "Solubility in DI water", "setting": "[1]", "value": 0.625, "unit": "mg/mL"}
    ]},
    {"compound": "COc1ccc2c(c1)[C@]1(C[C@H]1c1ccc3c(/C=C/c4ccc(CN5C[C@@H](C)O[C@@H](C)C5)cc4)n[nH]c3c1)C(=O)N2", "note": "[Maleate (form A)]", "values": [
      {"measurement": "Gravimetric Moisture Sorption", "setting": "[3]; 60% RH, listed as Maleate A", "value": "1.3 wt %, 60% RH"},
      {"measurement": "Gravimetric Moisture Sorption", "setting": "[3]; 90% RH, listed as Maleate A", "value": "2.2 wt %, 90% RH"},
      {"measurement": "AUC0-tlast", "setting": "[2]; 5.0 mg/kg", "value": 1500, "unit": "ng·h/mL"},
      {"measurement": "Cmax", "setting": "[2]; 5.0 mg/kg", "value": 200, "unit": "ng/mL"}
    ]}
  ]
}
